Experiment [1] has as its system ET-1-induced CTGF expression in WI-38 cells. The experiment in a line: ET-1-induced CTGF expression in WI-38 cells (Western blot). Particulars: WI-38 lung fibroblasts, 0.3, 1, 3 or 10 μM for 30 min before and during 2 h ET-1 (10 nM). The format is cell-based, human. How it is done: FIGS. 2 (A) and (B) show the effect of L056 on ET-1-induced CTGF expression in WI-38 cells. WI-38 lung fibroblasts were incubated with different concentrations of L056 (0.3, 1, 3 or 10 μM) for 30 min before and during incubation for 2 h with ET-1 (10 nM). […] (A), Western blot plot; (B), Quantitative assay of Western blot. WI-38 cells, a normal human embryonic lung fibroblast cell line, were obtained from American Type Culture Collection (Manassas, VA). Cells were grown in MEM nutrient mixture, containing 10% FCS, 2 mM L-glutamine, 0.1 mM NEAA, 1 mM sodium pyruvate, 50 U/ml penicillin G, and 100 µg/ml streptomycin, in a humidified 37° C. incubator with 5% CO2 Cells were used between passages 18 and 30 for all experiments. After reaching confluence, cells were seeded onto 6-cm dishes for immunoblotting. Western blot analyses were performed as described previously (Chen B C, Chang Y S, Kang J C, Hsu M J, Sheu J R, Chen T L, et al. Peptidoglycan induces nuclear factor-kappaB activation and cyclooxygenase-2 expression via Ras, Raf-1, and ERK in RAW 264.7 macrophages. J Biol Chem 2004; 279:20889-97). Briefly, WI-38 lung fibroblasts were cultured in 6-cm dishes. […] The immunoreactivity was detected using enhanced chemiluminescence (ECL) following the manufacturer's instructions. Quantitative data were obtained using a computing densitometer with scientific imaging systems (Kodak, Rochester, NY). […]

Experiment [2] has as its system TGF-β-induced fibronectin expression in WI-38 cells. Description: TGF-β-induced fibronectin expression in WI-38 cells (Western blot, immunofluorescence). It is filed as cell-based, human. Particulars: WI-38 lung fibroblasts, 0.3, 1, 3 or 10 μM for 30 min before and during incubation with TGF-β (10 ng/mL). How it is done: FIGS. 6 (A), (B) and (C) show the effect of L056 on TGF-β-induced fibronectin expression in WI-38 cells. WI-38 lung fibroblasts were incubated with different concentrations of L056 (0.3, 1, 3 or 10 μM) for 30 min before and during incubation for 2 h with TGF-β (10 ng/mL). […] (A), Western blot plot; (B), Quantitative assay of Western blot; (C), Immunofluorescence plot. WI-38 cells, a normal human embryonic lung fibroblast cell line, were obtained from American Type Culture Collection (Manassas, VA). Cells were grown in MEM nutrient mixture, containing 10% FCS, 2 mM L-glutamine, 0.1 mM NEAA, 1 mM sodium pyruvate, 50 U/ml penicillin G, and 100 µg/ml streptomycin, in a humidified 37° C. incubator with 5% CO2 Cells were used between passages 18 and 30 for all experiments. After reaching confluence, cells were seeded onto 6-cm dishes for immunoblotting. Western blot analyses were performed as described previously (Chen B C, Chang Y S, Kang J C, Hsu M J, Sheu J R, Chen T L, et al. Peptidoglycan induces nuclear factor-kappaB activation and cyclooxygenase-2 expression via Ras, Raf-1, and ERK in RAW 264.7 macrophages. J Biol Chem 2004; 279:20889-97). […] The immunoreactivity was detected using enhanced chemiluminescence (ECL) following the manufacturer's instructions. Quantitative data were obtained using a computing densitometer with scientific imaging systems (Kodak, Rochester, NY). […]

Molecules are shown by their SMILES.

As to `O=C(Nc1ccncc1)c1ccc(CNC2=C(Cl)C(=O)c3ccccc3C2=O)cc1` [Example L056, 4-(((3-chloro-1,4-dioxo-1,4-dihydronaphthalen-2-yl)amino)methyl)-N-(pyridin-4-yl)benzamide], the “ET-1-induced CTGF production/expression” value is reported as “significantly inhibited” in experiment [1] and “inhibited” in experiment [1] (listed as MPTOL0560). Also, the TGF-β-induced fibronectin expression result in experiment [2] is “significantly inhibited”.

For the origin of these results see patent US12453708B2, “Aminonaphthoquinone compounds for treatment and/or prevention of fibrosis diseases” (CALGENT BIOTECHNOLOGY CO., LTD., priority 2015, dated 2025).
